Patent US20090326037A1 (priority 2005, published 2009)
Values joined by “and” are separate entries in the source; they are usually repeats but may differ in a detail not shown here. Equal entries are not always repeated. Structures can show the parent of a compound that is named as a salt. Where two headings read alike, the source gives them in different places.

Columns and labels:
[1] = system: influenza A/Singapore/1/57 virus; assay: microbe, parasite or virus in culture; format: cell-based; conditions: for Percent of inhibition of OD 490: added 30 min prior to infection
[2] = system: avian influenza virus (H5N1); format: in vivo, white mice; conditions: orally
[3] = Toxicity (lethal effect, LD50) in mice; format: in vivo; conditions: endogastrically, observation 14 days
Method: (§1) Determination of toxicity of 1-methyl-2-phenylthiomethyl-3-carbethoxy-5-oxy-6-bromindol sulfon as compared with arbidol.
(§2) The administration of the preparations was carried out endogastrically, the period of observation of the animals was 14 days.

[4] = Toxicity (lethal effect, LD50) in rats; format: in vivo; conditions: endogastrically, observation 14 days
Method: as §1, §2

[5] = system: influenza virus A/PR/8/34; format: cell-based; conditions: influenza virus A/PR/8/34, MDCK cells; concentration not given
[6] = system: influenza virus H3N2; format: in vivo, mice
[7] = Influenza A virus, MDCK, read-out: percent of inhibition of viral reproduction

CCOC(=O)c1c(CSc2ccccc2)n(C)c2cc(Br)c(O)c(CN(C)C)c12 [Arbidol, 1-methyl-2-phenylthiomethyl-3-carbethoxy-4-dimethylaminomethyl-5-oxy-6-bromindol hydrochloride]
Percent of inhibition of OD 490 ([1]; A or D 5 μg/ml + Amantadin 0.3 μg/ml): 60%
Percent of inhibition of OD 490 ([1]; A or D 5 μg/ml + Amantadin 1 μg/ml): 68%
Percent of inhibition of OD 490 ([1]; A or D 5 μg/ml + Amantadin 5 μg/ml): 74%
Percent of inhibition of OD 490 ([1]; A or D 5 μg/ml + Amantadin 10 μg/ml): 81%
Percent of inhibition of OD 490 ([1]; A or D 5 μg/ml + Remantadin 0.3 μg/ml): 63%
Percent of inhibition of OD 490 ([1]; A or D 5 μg/ml + Remantadin 1 μg/ml): 71%
Percent of inhibition of OD 490 ([1]; A or D 5 μg/ml + Remantadin 5 μg/ml): 74%
Percent of inhibition of OD 490 ([1]; A or D 5 μg/ml + Remantadin 10 μg/ml): 82%
Percent of inhibition of OD 490 ([1]; A or D 5 μg/ml alone (Amantadin 0)): 38%
Percent of inhibition of OD 490 ([1]; A or D 5 μg/ml alone (Remantadin 0)): 38%
Percent of inhibition of OD 490 ([1]; A or D 10 μg/ml + Amantadin 0.3 μg/ml): 77%
Percent of inhibition of OD 490 ([1]; A or D 10 μg/ml + Amantadin 1 μg/ml): 81%
Percent of inhibition of OD 490 ([1]; A or D 10 μg/ml + Amantadin 5 μg/ml): 82%
Percent of inhibition of OD 490 ([1]; A or D 10 μg/ml + Amantadin 10 μg/ml): 85%
Percent of inhibition of OD 490 ([1]; A or D 10 μg/ml + Remantadin 0.3 μg/ml): 78%
Percent of inhibition of OD 490 ([1]; A or D 10 μg/ml + Remantadin 1 μg/ml): 80%
Percent of inhibition of OD 490 ([1]; A or D 10 μg/ml + Remantadin 5 μg/ml): 82%
Percent of inhibition of OD 490 ([1]; A or D 10 μg/ml + Remantadin 10 μg/ml): 86%
Percent of inhibition of OD 490 ([1]; A or D 10 μg/ml alone (Amantadin 0)): 67%
Percent of inhibition of OD 490 ([1]; A or D 10 μg/ml alone (Remantadin 0)): 67%
percent of inhibition of viral reproduction ([1]; Arbidol 3 μg/ml + Ribavirin 1 μg/ml): 19%
percent of inhibition of viral reproduction ([1]; Arbidol 3 μg/ml + Ribavirin 3 μg/ml): 30%
percent of inhibition of viral reproduction ([1]; Arbidol 3 μg/ml + Ribavirin 10 μg/ml): 52%
percent of inhibition of viral reproduction ([1]; Arbidol 3 μg/ml + Ribavirin 15 μg/ml): 54%
percent of inhibition of viral reproduction ([1]; Arbidol 10 μg/ml + Ribavirin 1 μg/ml): 26%
percent of inhibition of viral reproduction ([1]; Arbidol 10 μg/ml + Ribavirin 3 μg/ml): 35%
percent of inhibition of viral reproduction ([1]; Arbidol 10 μg/ml + Ribavirin 10 μg/ml): 85%
percent of inhibition of viral reproduction ([1]; Arbidol 10 μg/ml + Ribavirin 15 μg/ml): 82%
percent of inhibition of viral reproduction ([1]; Arbidol 15 μg/ml + Ribavirin 1 μg/ml): 43%
percent of inhibition of viral reproduction ([1]; Arbidol 15 μg/ml + Ribavirin 3 μg/ml): 41%
percent of inhibition of viral reproduction ([1]; Arbidol 15 μg/ml + Ribavirin 10 μg/ml): 82%
percent of inhibition of viral reproduction ([1]; Arbidol 15 μg/ml + Ribavirin 15 μg/ml): 80%
percent of inhibition of viral reproduction ([1]; Arbidol 20 μg/ml + Ribavirin 1 μg/ml): 65%
percent of inhibition of viral reproduction ([1]; Arbidol 20 μg/ml + Ribavirin 3 μg/ml): 68%
percent of inhibition of viral reproduction ([1]; Arbidol 20 μg/ml + Ribavirin 10 μg/ml): 80%
percent of inhibition of viral reproduction ([1]; Arbidol 20 μg/ml + Ribavirin 15 μg/ml): 82%
inhibition at 3 µg/mL [1, 7]: < 0%
inhibition at 10 µg/mL [1, 7]: 23%
inhibition at 15 µg/mL [1, 7]: 40%
inhibition at 20 µg/mL [1, 7]: 55%
inhibition of the virus ([1]; combination of 3 μg/ml of arbidol and 3.3 mg of zanamivir (oseltamivir), 2 hours after infection): 90%
Surviving mice, % ([2]; Arbidol 30 mg/kg + Oseltamivir 0.25 mg/kg): 70%
Surviving mice, % ([2]; Arbidol 30 mg/kg + Oseltamivir 1.0 mg/kg): 85%
Surviving mice, % ([2]; Arbidol 30 mg/kg + Oseltamivir 2.5 mg/kg): 100%
Surviving mice, % ([2]; Arbidol 30 mg/kg alone (Oseltamivir 0 mg/kg)): 65%
Lethal effect upon administration to mice ([3]; Dose 100 mg/kg): 0/6
Lethal effect upon administration to mice ([3]; Dose 250 mg/kg): 0/6
Lethal effect upon administration to mice ([3]; Dose 500 mg/kg): 1/6
Lethal effect upon administration to mice ([3]; Dose 1000 mg/kg): 3/6
Lethal effect upon administration to mice ([3]; Dose 3000 mg/kg): 6/6
LD50 at 14 days ([3]; mouse, in vivo, oral, mice): 860 ± 50 mg/kg
Lethal effect upon administration to rats ([4]; Dose 100 mg/kg): 0/6
Lethal effect upon administration to rats ([4]; Dose 250 mg/kg): 0/6
Lethal effect upon administration to rats ([4]; Dose 500 mg/kg): 1/6
Lethal effect upon administration to rats ([4]; Dose 1000 mg/kg): 3/6
Lethal effect upon administration to rats ([4]; Dose 3000 mg/kg): 6/6
LD50 at 14 days ([4]; rat, in vivo, oral, rats): 1720 ± 70 mg/kg
Percent of suppression of virus reproduction [5]: 60%
Percent of surviving mice ([6]; Concentration 15): 80%
Percent of surviving mice ([6]; Concentration 30, hydrochloride): 80% and 60% and 70%
